Measured values as given in US20030032674A1, “Use of unsaturated fatty acids to treat severe inflammatory diseases” (priority 2001, published 2003).

System: COX-2 promoter
Experiment: COX-2 promoter luciferase reporter gene assay, transiently transfected RAW 264.7 cells
Assay type: cell-based, murine
Design: lauric acid-induced COX-2 expression on co-transfection of dominant-negative IkBa / lauric acid-induced COX-2 expression on co-transfection of dominant-negative PPARγ / lauric acid-induced COX-2 expression on co-transfection of dominant-negative TLR4 [DTLR4 (P712H)]: dose or concentration left out as unconfirmed
From the text: Plasmids and DNA Constructs—All plasmids and constructs were obtained or made as reported in either S. H. Rhee and D. Hwang, “Murine TOLL-like receptor 4 confers lipopolysaccaride responsiveness as determined by activation of NFκB and expression of the inducible cyclooxygenase,” Journal of Biological Chemistry, vol. 275, pp. 34035-34040 (2000); and J. Y. Lee et al., “Saturated fatty acids, but not unsaturated fatty acids, induce the expression of cyclooxygenase-2 mediated through TOLL-like receptor 4,” Journal of Biological Chemistry, vol. 276, pp. 16683-16689 (2001). Briefly, the luciferase reporter plasmids (pGL2) containing the promoter region of the murine COX-2 gene (−3201/+93 or −1017/+93) were provided by David Dewitt (Michigan State University, East Lansing, Mich.). To prepare the wild-type COX-2 promoter fragment, polymerase chain reaction (PCR) was performed with the primers named Kpn-COX2-For and Hind-COX2-Rev using the murine COX-2 (−1017/+93) luciferase reporter plasmid as a template. To prepare the mutant COX-2 promoter fragment containing mutated NFκB site, Kpn-COX2-Fmut and Hind-COX2-Rev were used as primers. Each PCR fragment was inserted into the KpnI and HindIII sites of pGL2 to generate the wild-type or mutant COX-2 (−410/+86) luciferase reporter constructs, respectively. Sequences for wild-type NFκB site and the primers were used as reported elsewhere. (See Lee et al., 2001). The 2×NFκB-luciferase reporter construct was a gift from Frank Mercurio (Signal Pharmaceuticals, San Diego, Calif.). HSP70-β-galactosidase reporter plasmid was a gift from Robert Modlin (University of California, Los Angeles, Calif.). The expression plasmids for a constitutively active form of TLR4 (DTLR4) and a dominant-negative mutant, DTLR4 (P712H) were prepared as previously described. See S. H. Rhee et al., 2000. The expression plasmid of the wild-type NFκB-inducing kinase (NIK), pRK-NIK(wt) was a gift from Mike Rothe (Tularik, South San Francisco, Calif.). The dominant-negative mutant of inhibitor kB (pCMV4-IkBa(DN)) was provided by Dean Ballard (Vanderbilt University, Nashville, Tenn.). 4×NFκB-luciferase reporter construct was purchased from Clontech (Palo Alto, Calif.) and used for transient transfection. Heat shock protein 70 (HSP70)-β-galactosidase reporter plasmid was from Robert Modlin (University of Calif., Los Angeles, Calif.). The expression plasmids for a wild-type TLR2 and a dominant-negative mutant [TLR2 (P681H)] were from C. B. Wilson (University of Washington, Seattle, Wash.). Constitutively active chimeric CD4-TLR4 was obtained from C. A. Janeway, Jr. (Yale University, New Haven, Conn.). The constitutively active form of MyD88 (MyD88(ΔToll)) and the dominant-negative mutant, MyD88(ΔDD) were kindly provided by Jurg Tschopp (University of Lausanne, Switzerland). The dominant-negative mutant of mouse PPARg [pCMX-PPARg(L466A/L467A)] was a gift from Ira Schulman (Ligand Pharmaceuticals, San Diego, Calif.). All DNA constructs were prepared in large scale using the EndoFree Plasmid Maxi kit (Qiagen, Chatsworth, Calif.) for transfection.
Transient transfection and luciferase assay—These procedures were performed as described in S. H. Rhee et al., “Murine TOLL-like receptor 4 confers lipopolysaccharide responsiveness as determined by activation of NFκB and expression of the inducible cyclooxygenase,” J. Biol. Chem., vol. 275, pp. 34035-34040 (2000); and J. H. Paik et al., “Two opposing effects of non-steroidal anti-inflammatory drugs on the expression of the inducible cyclooxygenase, Mediation through different signaling pathways,” J. Biol. Chem., vol. 275, pp. 28173-28179 (2000). Briefly, RAW 264.7 cells were plated in 6-well plates (5×10^5 cells/well) and transfected with luciferase reporter plasmids and HSP70-β-galactosidase plasmid as an internal control using SuperFect transfect reagent (Quiagen) according to the manufacturer's instructions. […]

**Q.** Which “lauric acid-induced COX-2 expression on co-transfection of dominant-negative IkBa” value (24 hours) does the source give for `CCCCCCCCCCCC(=O)O` [lauric acid] here?
**A.** inhibited

**Q.** And the “lauric acid-induced COX-2 expression on co-transfection of dominant-negative TLR4 [DTLR4 (P712H)]” value (24 hours)?
**A.** inhibits

**Q.** What about the “lauric acid-induced COX-2 expression on co-transfection of dominant-negative PPARγ” value (24 hours, with or without PPRE-like sequences) of the same compound?
**A.** not altered

**Q.** What about the “lauric acid-induced COX-2 expression, promoter with mutated NFκB site vs wild-type site” value (COX-2 promoter reporter with mutated NFκB site) of the same compound?
**A.** significantly reduced
